The target of one assay is T1, HIV protease (Human immunodeficiency virus type 1 group M subtype B, UniProt P04585).
T1 construct: HIV protease is diluted in the assay buffer to a final enzyme concentration of 12.3 nanomolar, based on a molecular weight of 10,780
The experiment in a line: HIV protease enzyme assay (fluorescence, peptide substrate). The conditions noted are these: concentration reducing enzyme activity by 50%; substrate 80 μM, enzyme 12.3 nanomolar, pH 6.4. It is filed as biochemical. The source says:
The compounds of the present invention are effective HIV protease inhibitors. Utilizing an enzyme assay as described below, the compounds set forth in the examples herein disclosed inhibited the HIV enzyme. The preferred compounds of the present invention and their calculated IC50 (inhibiting concentration 50%, i.e., the concentration at which the inhibitor compound reduces enzyme activity by 50%) values are shown in Table 16. The enzyme method is described below. The substrate is 2-Ile-Nle-Phe(p-NO2)-Gln-ArgNH2. The positive control is MVT-101 (Miller, M. et al, Science, 246, 1149 (1989)] The assay conditions are as follows:
20 mM sodium phosphate, pH 6.4
The above described substrate is dissolved in DMSO, then diluted 10 fold in assay buffer. Final substrate concentration in the assay is 80 μM.
HIV protease is diluted in the assay buffer to a final enzyme concentration of 12.3 nanomolar, based on a molecular weight of 10,780.
The final concentration of DMSO is 14% and the final concentration of glycerol is 18%. The test compound is dissolved in DMSO and diluted in DMSO to 10× the test concentration; 10 μl of the enzyme preparation is added, the materials mixed and then the mixture is incubated at ambient temperature for 15 minutes. The enzyme reaction is initiated by the addition of 40 μl of substrate. The increase in fluorescence is monitored at 4 time points (0, 8, 16 and 24 minutes) at ambient temperature. Each assay is carried out in duplicate wells.

The next assay deals with HIV-1 in CEM cells. The experiment in a line: CEM cell assay: HIV inhibition in acutely infected cells, tetrazolium (MTT) colorimetric. It is filed as cell-based. The conditions noted are these: Human immunodeficiency virus 1, CCRF-CEM, 168 h. As to the method:
The effectiveness of various compounds were determined in the above-described enzyme assay and in a CEM cell assay.
The HIV inhibition assay method of acutely infected cells is an automated tetrazolium based colorimetric assay essentially that reported by Pauwles et al, J. Virol. Methods, 20, 309-321 (1988). Assays were performed in 96-well tissue culture plates. CEM cells, a CD4+ cell line, were grown in RPMI-1640 medium (Gibco) supplemented with a 10% fetal calf serum and were then treated with polybrene (2 μg/ml). An 80 μl volume of medium containing 1×10^4 cells was dispensed into each well of the tissue culture plate. To each well was added a 100 μl volume of test compound dissolved in tissue culture medium (or medium without test compound as a control) to achieve the desired final concentration and the cells were incubated at 37° C. for 1 hour. A frozen culture of HIV-1 was diluted in culture medium to a concentration of 5×10^4 TCID50 per ml (TCID50=the dose of virus that infects 50% of cells in tissue culture), and a 20 μL volume of the virus sample (containing 1000 TCID50 of virus) was added to wells containing test compound and to wells containing only medium (infected control cells). Several wells received culture medium without virus (uninfected control cells). Likewise, the intrinsic toxicity of the test compound was determined by adding medium without virus to several wells containing test compound. In summary, the tissue culture plates contained the following experiments:
In experiments 2 and 4 the final concentrations of test compounds were 1, 10, 100 and 500 μg/ml. Either azidothymidine (AZT) or dideoxyinosine (ddI) was included as a positive drug control. […] DMSO was added to all control wells at an appropriate concentration.
Following the addition of virus, cells were incubated at 37° C. in a humidified, 5% CO2 atmosphere for 7 days. Test compounds could be added on days 0, 2 and 5 if desired. On day 7, post-infection, the cells in each well were resuspended and a 100 μl sample of each cell suspension was removed for assay. A 20 μL volume of a 5 mg/ml solution of 3-(4,5-dimethylthiazol-2-yl)-2,5-diphenyltetrazolium bromide (MTT) was added to each 100 μL cell suspension, and the cells were incubated for 4 hours at […] in a 5% CO2 environment. […] To each sample was added 100 μl of 10% sodium dodecylsulfate in 0.01 N HCl to lyse the cells, and samples were incubated overnight. The absorbance at 590 nm was determined for each sample using a Molecular Devices microplate reader. Absorbance values for each set of wells is compared to assess viral control infection, uninfected control cell response as well as test compound by cytotoxicity and antiviral efficacy.

Setting [1] is: CEM cells acutely infected with HIV-1, 7 days, MTT readout, read-out: EC50.

Molecules are shown by their SMILES. pEC50, pIC50: −log10 of the molar value. Read-outs that look alike come from different tables or passages of the source.

For the molecule `COc1ccc(S(=O)(=O)N(CC(C)C)C[C@@H](O)[C@H](Cc2ccccc2)NC(=O)[C@H](C)CS(=O)(=O)N2CCOCC2)cc1` [Example 1], on HIV protease, the negative logarithm of the IC50 (pIC50) (in general, −log10 of the IC50, conventionally taken in molar units) is 8.00. Besides, the negative-log EC50 (pEC50) (as a rule, −log10 of the EC50, conventionally taken in molar units) with HIV-1 in CEM cells (setting [1]) is 7.49.
As for `COc1ccc(S(=O)(=O)N(CC(C)C)C[C@@H](O)[C@H](Cc2ccccc2)NC(=O)[C@H](C)CS(=O)(=O)N2CCN(C)CC2)cc1` [Example 2], the pIC50 against HIV protease is 8.10. The molecule also gave a negative logarithm of the EC50 (pEC50) in the assay with HIV-1 in CEM cells of 7.11.
Taken in the same sequence, the figures for `COc1ccc(S(=O)(=O)N(CC(C)C)C[C@@H](O)[C@H](Cc2ccccc2)NC(=O)[C@H](C)CS(N)(=O)=O)cc1` [Example 3] were 8.22 and 7.40.
On HIV protease, `COc1ccc(S(=O)(=O)N(CC(C)C)C[C@@H](O)[C@H](Cc2ccccc2)NC(=O)[C@H](C)CS(=O)(=O)N(C)C)cc1` [Example 4] gave a negative logarithm of the IC50 (pIC50) of 8.40. The molecule further had a negative logarithm of the EC50 (pEC50) with HIV-1 in CEM cells of 7.82.
Take `COc1ccc(S(=O)(=O)N(CC(C)C)C[C@@H](O)[C@H](Cc2ccccc2)NC(=O)[C@H](C)CS(=O)(=O)N2CCCCC2)cc1` [Example 5]: the negative logarithm of the IC50 (pIC50) at HIV protease is 7.89. This molecule had a pEC50 in the assay on HIV-1 in CEM cells of 6.68.
Take `COc1ccc(S(=O)(=O)N(CC(C)C)C[C@@H](O)[C@H](Cc2ccccc2)NC(=O)[C@H](C)CS(=O)(=O)N(Cc2ccccc2)C(c2ccccc2)c2ccccc2)cc1` [Example 6]: the pIC50 against HIV protease is 8.40.
On HIV protease, `COc1ccc(S(=O)(=O)N(CC(C)C)C[C@@H](O)[C@H](Cc2ccccc2)NC(=O)[C@H](C)CS(=O)(=O)NCc2ccccc2)cc1` [Example 7] showed a pIC50 of 8.52. This molecule gave a pEC50 in the assay on HIV-1 in CEM cells of 7.49.
`CC(C)CN(C[C@@H](O)[C@H](Cc1ccccc1)NC(=O)[C@H](C)CS(=O)(=O)N1CCNCC1)S(=O)(=O)c1ccc2c(c1)OCO2` [Example 8]: on HIV protease, the pIC50 was 8.05. The pEC50 with HIV-1 in CEM cells (setting [1]) was 6.38.
Taken in the same sequence, the figures for `CC(C)CN(C[C@@H](O)[C@H](Cc1ccccc1)NC(=O)[C@H](C)CS(=O)(=O)N1CCN(Cc2ccccc2)CC1)S(=O)(=O)c1ccc2c(c1)OCO2` [Example 9] were 8.22 and 7.08.
The corresponding values for `CC(C)CN(C[C@@H](O)[C@H](Cc1ccccc1)NC(=O)[C@H](C)CS(=O)(=O)N1CCN(Cc2ccccn2)CC1)S(=O)(=O)c1ccc2c(c1)OCO2` [Example 10] are 8.00 and 7.25.
Turning to `CC(C)CN(C[C@@H](O)[C@H](Cc1ccccc1)NC(=O)[C@H](C)CS(=O)(=O)N1CCN(Cc2cccnc2)CC1)S(=O)(=O)c1ccc2c(c1)OCO2` [Example 11], the negative-log IC50 (pIC50) against HIV protease is 8.05.
At HIV protease, `CC(C)CN(C[C@@H](O)[C@H](Cc1ccccc1)NC(=O)[C@H](C)CS(=O)(=O)N1CCN(Cc2ccncc2)CC1)S(=O)(=O)c1ccc2c(c1)OCO2` [Example 12] had a pIC50 of 8.05. Moreover, the pEC50 with HIV-1 in CEM cells (setting [1]) was 7.38.
In turn, `CC(C)CN(C[C@@H](O)[C@H](Cc1ccccc1)NC(=O)[C@H](C)CS(=O)(=O)N1CCCC1)S(=O)(=O)c1ccc2c(c1)OCO2` [Example 13] gave a negative-log IC50 (pIC50) at HIV protease of 8.22. Also, the negative-log EC50 (pEC50) in the assay on HIV-1 in CEM cells (setting [1]) is 6.75.
The corresponding values for `CC(C)CN(C[C@@H](O)[C@H](Cc1ccccc1)NC(=O)[C@H](C)CS(=O)(=O)N(C)c1ccccc1)S(=O)(=O)c1ccc2c(c1)OCO2` [Example 14] are 8.40 and 7.07.
Molecule `CC(C)CN(C[C@@H](O)[C@H](Cc1ccccc1)NC(=O)[C@H](C)CS(=O)(=O)N(C)Cc1ccccc1)S(=O)(=O)c1ccc2c(c1)OCO2` [Example 15] showed a pIC50 against HIV protease of 8.40.

For the origin of these results see patent publication US6569882B2, “Bis-sulfonamide hydroxyethyl-amino retroviral protease inhibitors” (G. D. Searle & Co., priority 1995, dated 2003).
